Test results: the supplement of paper PMC10307832

Compound: CN1CCC(CC1)OC2=CC(=C(C=C2)NC3=NC=C4C(=N3)N(C(=O)N4C)C5CCCC5)OC [AZ3146] + CCNC(=O)c1noc(-c2cc(C(C)C)c(O)cc2O)c1-c1ccc(CN2CCOCC2)cc1 [Luminespib] (partner 0.01 µM)
Experiment: relative viability (nuclei count vs DMSO), 5 days (fraction); higher = more cells survive
Details: first compound 0.08 µM
Summary of the method: (§1)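 Lung cancer cell lines were seeded in 1536-well plates and dosed by pin tool the next day, with either a single drug or a fixed anchor-drug dose combined with five library-drug doses (not always all listed) spaced in √10 steps. Five days later, one step fixed the cells and stained their nuclei (final 0.05% Triton X-100, 1% formaldehyde, 1 ug/ml Hoechst), and nuclei were counted on 4× images. Relative viability is the nuclei count in treated wells divided by the count in vehicle wells, and each value is the median of duplicate plates.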

Cell Line | relative viability
NCI-H522 | 1.1
NCI-H1623 | 0.486
PC-14 | 0.162
NCI-H1666 | 1.08
EKVX | 0.836
NCI-H1755 | 0.415
NCI-H2023 | 0.657
SK-LU-1 | 0.216
PC-3 [JPC-3] | 0.617
LOU-NH91 | 0.351
NCI-H647 | 0.186
NCI-H23 | 0.218
NCI-H2126 | 0.882
ChaGo-K-1 | 0.651
HCC-44 | 0.884
NCI-H1734 | 0.181
NCI-H650 | 0.734
LK-2 | 0.22
NCI-H2228 | 0.133
NCI-H2342 | 0.624
NCI-H1944 | 0.617
HARA | 0.895
COR-L23 | 0.618
LCLC-103H | 1.01
LXF-289 | 0.643
SW 900 | 0.176
NCI-H1563 | 0.465
NCI-H1650 | 0.214
NCI-H2170 | 0.703
ABC-1 | 0.331

Same assay, conditions: first compound 0.253 µM

Cell Line | relative viability
NCI-H522 | 1.03
NCI-H1623 | 0.591
PC-14 | 0.169
NCI-H1666 | 1.04
EKVX | 0.842
NCI-H1755 | 0.365
NCI-H2023 | 0.774
SK-LU-1 | 0.206
PC-3 [JPC-3] | 0.741
LOU-NH91 | 0.405
NCI-H647 | 0.178
NCI-H23 | 0.21
EPLC-272H | 0.342
NCI-H2126 | 0.942
ChaGo-K-1 | 0.528
HCC-44 | 1.02

Cell Line | relative viability
NCI-H1734 | 0.198
NCI-H650 | 0.706
LK-2 | 0.194
NCI-H2228 | 0.149
NCI-H2342 | 0.719
NCI-H1944 | 0.786
HARA | 0.823
COR-L23 | 0.693
LCLC-103H | 0.917
LXF-289 | 0.691
SW 900 | 0.167
NCI-H1563 | 0.525
NCI-H1650 | 0.201
NCI-H2170 | 0.827
ABC-1 | 0.483

Same assay, conditions: first compound 0.8 µM

Cell Line | relative viability
NCI-H522 | 1.2
NCI-H1623 | 0.612
NCI-H1666 | 1
EKVX | 0.838
NCI-H1755 | 0.537
NCI-H2023 | 0.78
SK-LU-1 | 0.231
PC-3 [JPC-3] | 0.676
LOU-NH91 | 0.374
NCI-H647 | 0.244
NCI-H23 | 0.241
EPLC-272H | 0.519
NCI-H2126 | 0.919
ChaGo-K-1 | 0.618
HCC-44 | 1.17
NCI-H1734 | 0.689
NCI-H650 | 0.764
LK-2 | 0.257
NCI-H2228 | 0.162
NCI-H2342 | 0.901
NCI-H1944 | 0.777
HARA | 0.711
COR-L23 | 0.624
LCLC-103H | 0.966
LXF-289 | 0.705
SW 900 | 0.18
NCI-H1563 | 0.477
NCI-H1650 | 0.185
NCI-H2170 | 0.755
ABC-1 | 0.782

Same assay, conditions: first compound 2.53 µM

Cell Line | relative viability
NCI-H522 | 1.13
NCI-H1623 | 0.604
PC-14 | 0.252
NCI-H1666 | 1.04
EKVX | 0.981
NCI-H1755 | 0.966
NCI-H2023 | 0.593
SK-LU-1 | 0.252
PC-3 [JPC-3] | 0.695
LOU-NH91 | 0.377
NCI-H647 | 0.149
NCI-H23 | 0.223
EPLC-272H | 0.323
NCI-H2126 | 0.919
ChaGo-K-1 | 0.816
HCC-44 | 1.02

Cell Line | relative viability
NCI-H1734 | 0.198
NCI-H650 | 0.904
LK-2 | 0.151
NCI-H2228 | 0.145
NCI-H2342 | 0.698
NCI-H1944 | 0.906
HARA | 0.816
COR-L23 | 0.69
LCLC-103H | 1.01
LXF-289 | 0.772
SW 900 | 0.184
NCI-H1563 | 0.51
NCI-H1650 | 0.189
NCI-H2170 | 0.576
ABC-1 | 0.568

Same assay, conditions: first compound 8 µM

Cell Line | relative viability
NCI-H522 | 1.18
NCI-H1623 | 0.556
PC-14 | 0.159
NCI-H1666 | 0.763
EKVX | 0.899
NCI-H1755 | 0.696
NCI-H2023 | 0.153
SK-LU-1 | 0.231
PC-3 [JPC-3] | 0.715
LOU-NH91 | 0.385
NCI-H647 | 0.269
NCI-H23 | 0.226
EPLC-272H | 0.321
NCI-H2126 | 0.767
ChaGo-K-1 | 0.588
HCC-44 | 0.999

Cell Line | relative viability
NCI-H1734 | 0.2
NCI-H650 | 0.854
LK-2 | 0.203
NCI-H2228 | 0.146
NCI-H2342 | 0.688
NCI-H1944 | 1.06
HARA | 0.512
COR-L23 | 0.611
LCLC-103H | 1.02
LXF-289 | 0.787
SW 900 | 0.167
NCI-H1563 | 0.511
NCI-H1650 | 0.186
NCI-H2170 | 0.616
ABC-1 | 0.532

Compound: CN1CCC(CC1)OC2=CC(=C(C=C2)NC3=NC=C4C(=N3)N(C(=O)N4C)C5CCCC5)OC [AZ3146] + C[C@]1(O)C[C@@H](c2nc(-c3ccc4ccc(-c5ccccc5)nc4c3)c3c(N)nccn32)C1 [Linsitinib] (partner 1 µM)
Experiment: as above
Details: first compound 0.08 µM
Summary of the method: as §1

Cell Line | relative viability
PC-14 | 1.05
